# According to patent US9066990B2, “Preparation for restenosis prevention” (priority 2001, dated 2015):
# Test: Solubility in the contrast agent or physiological NaCl solution
smiles,measurement,setting,value
"CC(=O)O[C@H]1C(=O)[C@@]2(C)[C@H]([C@H](OC(=O)c3ccccc3)[C@]3(O)C[C@H](OC(=O)[C@H](O)[C@@H](NC(=O)c4ccccc4)c4ccccc4)C(C)=C1C3(C)C)[C@]1(OC(C)=O)CO[C@@H]1C[C@@H]2O [paclitaxel, 4,10-β-diacetoxy-13-α-((2R,3S)-3-ben-zamido-2-hydroxy-3-phenylpropionyloxy)-2α-benzoyloxy-5-β, 20-epoxy-1,7-β-dihydroxy-11-taxene-9-one]",appearance of preparation after mixing,4.2 mg paclitaxel in 0.5 ml of ethanol added at room temperature to 50 ml of 0.9% NaCl solution,becomes turbid immediately after mixing
same,particles under a microscope,4.2 mg paclitaxel in 50 ml of 0.9% NaCl solution,Large aggregations of fine particles
same,appearance of solution after mixing,7.6 mg paclitaxel in 0.5 mg of ethanol added at room temperature to 50 ml Ultravist-370,clear solution without any turbidity
same,particles under a microscope,7.6 mg paclitaxel in 50 ml Ultravist-370,No particles can be identified
same,stability of the solution,"7.6 mg paclitaxel in 50 ml Ultravist-370, room temperature",remains stable for several days
